The record followed here is patent US10550105B2 (Ribon Therapeutics Inc., priority 2018, dated 2020).

The target in this experiment is PARP7 (Homo sapiens (Human), UniProt Q7Z3E1). The experiment can be described thus: Enzymatic assay for inhibition of PARP7: TR-FRET displacement of biotinylated Probe A from the TIPARP active site. As to conditions: Table A-1. It counts as binding. In short, it runs like this: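 Compounds were tested as dose-response series, and reactions were incubated a further 30 min at 25° C. TR-FRET was read at 320 nm excitation with 615 and 665 nm emission after a 90 μs delay. The 665/615 ratio gave the TIPARP–Probe A complex, and % inhibition was fitted against concentration.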
Sequence of PARP7 (Q7Z3E1 whole entry): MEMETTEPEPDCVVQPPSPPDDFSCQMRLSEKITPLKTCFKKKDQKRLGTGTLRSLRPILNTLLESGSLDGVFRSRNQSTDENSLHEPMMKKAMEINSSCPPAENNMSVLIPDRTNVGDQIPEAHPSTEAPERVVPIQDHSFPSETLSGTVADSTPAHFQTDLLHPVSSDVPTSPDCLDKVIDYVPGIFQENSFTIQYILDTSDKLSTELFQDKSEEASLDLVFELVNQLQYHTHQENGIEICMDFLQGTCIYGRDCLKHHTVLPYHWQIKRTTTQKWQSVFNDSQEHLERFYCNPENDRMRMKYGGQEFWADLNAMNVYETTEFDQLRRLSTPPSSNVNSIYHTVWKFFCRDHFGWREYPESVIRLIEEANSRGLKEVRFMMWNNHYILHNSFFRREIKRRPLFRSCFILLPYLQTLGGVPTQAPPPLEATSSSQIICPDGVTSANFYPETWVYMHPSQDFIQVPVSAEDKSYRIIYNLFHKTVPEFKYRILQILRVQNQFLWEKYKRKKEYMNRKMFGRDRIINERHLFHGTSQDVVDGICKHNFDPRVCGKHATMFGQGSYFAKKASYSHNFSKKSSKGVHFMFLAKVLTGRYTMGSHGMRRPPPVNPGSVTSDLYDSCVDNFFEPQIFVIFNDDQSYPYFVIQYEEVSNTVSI
Take `Cc1ccc(N2CCN(C(=O)CCOC[C@H](C)Nc3cn[nH]c(=O)c3C(F)(F)F)CC2)nc1` [Example 671, (S)-5-((1-(3-(4-(5-Methylpyridin-2-yl)piperazin-1-yl)-3-oxopropoxy)propan-2-yl)amino)-4-(trifluoromethyl)pyridazin-3(2H)-one]: the IC50 was below 0.1 µM.
In the case of `C[C@@H](COCCC(=O)N1CCN(c2ccc(CN)cn2)CC1)Oc1cn[nH]c(=O)c1C(F)(F)F` [Example 673, (S)-5-((1-(3-(4-(5-(Aminomethyl)pyridin-2-yl)piperazin-1-yl)-3-oxopropoxy)propan-2-yl)oxy)-4-(trifluoromethyl)pyridazin-3(2H)-one], the IC50 was below 0.1 µM.
In the case of `C[C@@H](COCCC(=O)N1CCN(c2cc(C(F)(F)F)ccn2)CC1)Nc1cn[nH]c(=O)c1C(F)(F)F` [Example 674, (S)-5-((1-(3-Oxo-3-(4-(4-(trifluoromethyl)pyridin-2-yl)piperazin-1-yl)propoxy)propan-2-yl)amino)-4-(trifluoromethyl)pyridazin-3(2H)-one] it was below 0.1 µM; in that of `C[C@@H](COCCC(=O)N1CCN(c2ccccn2)CC1)Nc1cn[nH]c(=O)c1C(F)(F)F` [Example 675, (S)-5-((1-(3-Oxo-3-(4-(pyridin-2-yl)piperazin-1-yl)propoxy)propan-2-yl)amino)-4-(trifluoromethyl)pyridazin-3(2H)-one], below 0.1 µM.
In the case of `C[C@@H](COCCC(=O)N1CCN(c2ncccc2C#N)CC1)Nc1cn[nH]c(=O)c1C(F)(F)F` [Example 676, (S)-2-(4-(3-(2-((6-Oxo-5-(trifluoromethyl)-1,6-dihydropyridazin-4-yl)amino)propoxy)propanoyl)piperazin-1-yl)nicotinonitrile] it was below 0.1 µM.
In the case of `C[C@@H](COCCC(=O)N1CCN(c2ncccc2C(F)(F)F)CC1)Nc1cn[nH]c(=O)c1C(F)(F)F` [Example 677, (S)-5-((1-(3-Oxo-3-(4-(3-(trifluoromethyl)pyridin-2-yl)piperazin-1-yl)propoxy)propan-2-yl)amino)-4-(trifluoromethyl)pyridazin-3(2H)-one] it was below 0.1 µM; in that of `COC[C@@H](COCCC(=O)N1CCN(c2cnc(Cl)cn2)CC1)Nc1cn[nH]c(=O)c1C(F)(F)F` [Example 678, (S)-5-((1-(3-(4-(5-Chloropyrazin-2-yl)piperazin-1-yl)-3-oxopropoxy)-3-methoxypropan-2-yl)amino)-4-(trifluoromethyl)pyridazin-3(2H)-one], below 0.1 µM.
Compound `C[C@@H](COCCC(=O)N1CCN(c2ncc(F)cn2)CC1)Nc1cn[nH]c(=O)c1C(F)(F)F` [Example 679, (S)-5-((1-(3-(4-(5-Fluoropyrimidin-2-yl)piperazin-1-yl)-3-oxopropoxy)propan-2-yl)amino)-4-(trifluoromethyl)pyridazin-3(2H)-one] returned an IC50 below 0.1 µM.
In the case of `C[C@@H](COCCC(=O)N1CCN(c2ncc(C#N)s2)CC1)Nc1cn[nH]c(=O)c1C(F)(F)F` [Example 680, (S)-2-(4-(3-(2-((6-Oxo-5-(trifluoromethyl)-1,6-dihydropyridazin-4-yl)amino)propoxy)propanoyl)piperazin-1-yl)thiazole-5-carbonitrile] it was below 0.1 µM; in that of `COC[C@@H](COCCC(=O)N1CCN(c2cnc(C(F)(F)F)cn2)CC1)Nc1cn[nH]c(=O)c1C(F)(F)F` [Example 681, (S)-5-((1-Methoxy-3-(3-oxo-3-(4-(5-(trifluoromethyl)pyrazin-2-yl)piperazin-1-yl)propoxy)propan-2-yl)amino)-4-(trifluoromethyl)pyridazin-3(2H)-one], below 0.1 µM.
Turning to `Cc1ccc(N2CCN(C(=O)CCOC[C@H](C)Oc3cn[nH]c(=O)c3C(F)(F)F)CC2)nc1` [Example 682, (S)-5-((1-(3-(4-(5-Methylpyridin-2-yl)piperazin-1-yl)-3-oxopropoxy)propan-2-yl)oxy)-4-(trifluoromethyl)pyridazin-3(2H)-one], the IC50 is below 0.1 µM.
On to `C[C@@H](COCCC(=O)N1CCN(c2cnc(C#N)cn2)CC1)Nc1cn[nH]c(=O)c1C(F)(F)F` [Example 683, (S)-5-(4-(3-(2-((6-Oxo-5-(trifluoromethyl)-1,6-dihydropyridazin-4-yl)amino)propoxy)propanoyl)piperazin-1-yl)pyrazine-2-carbonitrile], for which the IC50 was below 0.1 µM.
In the case of `C[C@@H](COCCC(=O)N1CCN(c2ccc(F)cn2)CC1)Nc1cn[nH]c(=O)c1C(F)(F)F` [Example 684, (S)-5-((1-(3-(4-(5-Fluoropyridin-2-yl)piperazin-1-yl)-3-oxopropoxy)propan-2-yl)amino)-4-(trifluoromethyl)pyridazin-3(2H)-one] it was below 0.1 µM; in that of `C[C@@H](COCCC(=O)N1CCN(c2ccc(C(F)(F)F)nc2)CC1)Nc1cn[nH]c(=O)c1C(F)(F)F` [Example 685, (S)-5-((1-(3-Oxo-3-(4-(6-(trifluoromethyl)pyridin-3-yl)piperazin-1-yl)propoxy)propan-2-yl)amino)-4-(trifluoromethyl)pyridazin-3(2H)-one], below 0.1 µM; in that of `COCC[C@@H](COCCC(=O)N1CCN(c2ncc(C(F)(F)F)cn2)CC1)Nc1cn[nH]c(=O)c1C(F)(F)F` [Example 686, (S)-5-((4-Methoxy-1-(3-oxo-3-(4-(5-(trifluoromethyl)pyrimidin-2-yl)piperazin-1-yl)propoxy)butan-2-yl)amino)-4-(trifluoromethyl)pyridazin-3(2H)-one], below 0.1 µM.
The same measure for `Cc1cnc(N2CCN(C(=O)CCOC[C@H](C)Oc3cn[nH]c(=O)c3C(F)(F)F)CC2)nc1` [Example 687, (S)-5-((1-(3-(4-(5-Methylpyrimidin-2-yl)piperazin-1-yl)-3-oxopropoxy)propan-2-yl)oxy)-4-(trifluoromethyl)pyridazin-3(2H)-one]: below 0.1 µM.
The same measure for `C[C@@H](COCCC(=O)N1CC[C@@H]2[C@H]1CCN2c1ncc(C(F)(F)F)cn1)Nc1cn[nH]c(=O)c1C(F)(F)F` [Example 688, 5-(((S)-1-(3-Oxo-3-((3aR,6aR)-4-(5-(trifluoromethyl)pyrimidin-2-yl)hexahydropyrrolo[3,2-b]pyrrol-1(2H)-yl)propoxy)propan-2-yl)amino)-4-(trifluoromethyl)pyridazin-3(2H)-one]: below 0.1 µM.
For `C[C@@H](COCCC(=O)N1CC[C@H]2[C@@H]1CCN2c1ncc(C(F)(F)F)cn1)Nc1cn[nH]c(=O)c1C(F)(F)F` [Example 689, 5-(((S)-1-(3-Oxo-3-((3aS,6aS)-4-(5-(trifluoromethyl)pyrimidin-2-yl)hexahydropyrrolo[3,2-b]pyrrol-1(2H)-yl)propoxy)propan-2-yl)amino)-4-(trifluoromethyl)pyridazin-3(2H)-one], the IC50 lay within 0.1 to 1 µM.
The same measure for `COC[C@@H](COCCC(=O)N1CCN(c2ncc(C)cn2)CC1)Nc1cn[nH]c(=O)c1C(F)(F)F` [Example 690, (S)-5-((1-Methoxy-3-(3-(4-(5-methylpyrimidin-2-yl)piperazin-1-yl)-3-oxopropoxy)propan-2-yl)amino)-4-(trifluoromethyl)pyridazin-3(2H)-one]: below 0.1 µM.
In the case of `COC[C@@H](COCCC(=O)N1CCN(c2ncc(C(F)(F)F)cn2)CC1)Sc1cn[nH]c(=O)c1C(F)(F)F` [Example 691, (S)-5-((1-Methoxy-3-(3-oxo-3-(4-(5-(trifluoromethyl)pyrimidin-2-yl)piperazin-1-yl)propoxy)propan-2-yl)thio)-4-(trifluoromethyl)pyridazin-3(2H)-one] it was below 0.1 µM; in that of `COC[C@@H](COCCC(=O)N1CCN(c2cnc(Cl)cn2)CC1)Nc1cn[nH]c(=O)c1Br` [Example 693, (S)-4-Bromo-5-((1-(3-(4-(5-chloropyrazin-2-yl)piperazin-1-yl)-3-oxopropoxy)-3-methoxypropan-2-yl)amino)pyridazin-3(2H)-one], below 0.1 µM.
The same measure for `COC[C@@H](COCCC(=O)N1CCN(c2cnc(C)cn2)CC1)Nc1cn[nH]c(=O)c1C(F)(F)F` [Example 695, (S)-5-((1-Methoxy-3-(3-(4-(5-methylpyrazin-2-yl)piperazin-1-yl)-3-oxopropoxy)propan-2-yl)amino)-4-(trifluoromethyl)pyridazin-3(2H)-one]: below 0.1 µM; for `COC[C@@H](COCCC(=O)N1CCN(c2cnc(Cl)cn2)CC1)Oc1cn[nH]c(=O)c1C(F)(F)F` [Example 696, (S)-5-((1-(3-(4-(5-Chloropyrazin-2-yl)piperazin-1-yl)-3-oxopropoxy)-3-methoxypropan-2-yl)oxy)-4-(trifluoromethyl)pyridazin-3(2H)-one]: below 0.1 µM; for `COC[C@H](COCCC(=O)N1CCN(c2cnc(Cl)cn2)CC1)Oc1cn[nH]c(=O)c1C(F)(F)F` [Example 697, (R)-5-((1-(3-(4-(5-Chloropyrazin-2-yl)piperazin-1-yl)-3-oxopropoxy)-3-methoxypropan-2-yl)oxy)-4-(trifluoromethyl)pyridazin-3(2H)-one]: 0.1 to 1 µM.
In the case of `CO[C@@H](C)[C@@H](COCCC(=O)N1CCN(c2ncc(C(F)(F)F)cn2)CC1)Nc1cn[nH]c(=O)c1C(F)(F)F` [Example 698, 5-(((2R,3S)-3-Methoxy-1-(3-oxo-3-(4-(5-(trifluoromethyl)pyrimidin-2-yl)piperazin-1-yl)propoxy)butan-2-yl)amino)-4-(trifluoromethyl)pyridazin-3(2H)-one], the IC50 was below 0.1 µM.
As to `CO[C@H](C)[C@@H](COCCC(=O)N1CCN(c2ncc(C(F)(F)F)cn2)CC1)Nc1cn[nH]c(=O)c1C(F)(F)F` [Example 699, 5-(((2R,3R)-3-Methoxy-1-(3-oxo-3-(4-(5-(trifluoromethyl)pyrimidin-2-yl)piperazin-1-yl)propoxy)butan-2-yl)amino)-4-(trifluoromethyl)pyridazin-3(2H)-one], the IC50 was below 0.1 µM.
In the case of `C[C@@H](COCCC(=O)N1CCN(c2ncc(C(F)(F)F)cn2)CC1)Sc1cn[nH]c(=O)c1Br` [Example 700, (S)-4-Bromo-5-((1-(3-oxo-3-(4-(5-(trifluoromethyl)pyrimidin-2-yl)piperazin-1-yl)propoxy)propan-2-yl)thio)pyridazin-3(2H)-one] it was below 0.1 µM.
